Values of other authors in paper PMC6329039 (Molecular Pain, 2019).

Tested on: STAT3
Conditions: thermal shift assays ref 33

Structure (SMILES): CN(CC(=O)N(Cc1ccc(C2CCCCC2)cc1)c1ccc(C(=O)O)c(O)c1)S(=O)(=O)c1c(F)c(F)c(F)c(F)c1F [BP-1–102]
- binding to and degradation of STAT3: specifically bind to and induce the degradation of STAT3
